Measurements as given in patent US20060088573A1, “Composition having action preventing or alleviating symtoms or diseases due to aging of blood vessels” (Suntory Limited, priority 2003, published 2006).

Tested on: thoracic arteries of old rats
Assay: Acetylcholine blood vessel relaxation reaction test on thoracic artery rings after 3 months of diet
Assay type: in vivo, rat
Text: The effect of triglyceride (arachidonic acid-containing oil (SUNTGA40S)) having arachidonic acid as a component fatty acid prepared in Reference Example 1 on the acetylcholine blood vessel relaxation reaction was investigated using rats. As the test groups of old rats, 15 19-month old male Fischer rats were divided into a control diet group (8 rats: OC group) and a SUNTGA40S compound diet group (7 rats: OA group).
The amount of intake of rats was about 20 g and the daily intake of SUNTGA40S per rat was 100 mg. Of the total fatty acids bonded with the arachidonic acid-containing oil (SUNTGA40S) prepared in Reference Example 1, 40% is arachidonic acid, so the daily intake of arachidonic acid per rat became 40 mg. This 40 mg corresponds to 133 mg/60 kg/day converted to human intake.
In the third month of raising (in the case of old rats, 22-month age and in the case of young rats, four-month age), the thoracic arteries were excised. Part was used for the in vitro blood vessel relaxation reaction test, while the remaining blood vessels were used for analysis of the fatty acid composition. […]

CCCCC/C=C\C/C=C\C/C=C\C/C=C\CCCC(=O)OC(COC(=O)CCCCCCC)COC(=O)CCCCCCC [8A8, 1,3-capryloyl-2-arachidonoyl-glycerol]
average blood vessel relaxation rate by acetylcholine 10^-7M (old male Fischer rats (22-month age), 8A8 diet 3 months (40 mg arachidonic acid/rat/day), old control diet 52.3%, young control diet 80.5%): 62.7% | blood vessel relaxation response (old rats, 8A8 diet 3 months, vs old rats on control diet): improved
